The text below walks through data of paper PMC12751012, “Nanoscale Direct-to-Biology Optimization and Structural Insights into Selective S. aureus TrmD Inhibitors” (Journal of Medicinal Chemistry, 2025).

Molecules are shown by their SMILES. Values joined by “and” are separate entries in the source; they are usually repeats but may differ in a detail not shown here. Identical values can stand only once. Counter-ions that a name gives are not always drawn.

Holding throughout (type): binding
Assay [1] deals with T1, S. aureus TrmD (Staphylococcus aureus, UniProt Q2FZ43).
T1 construct: made in house; host or cells: E. coli BL21
T1 sequence (Q2FZ43 1-245): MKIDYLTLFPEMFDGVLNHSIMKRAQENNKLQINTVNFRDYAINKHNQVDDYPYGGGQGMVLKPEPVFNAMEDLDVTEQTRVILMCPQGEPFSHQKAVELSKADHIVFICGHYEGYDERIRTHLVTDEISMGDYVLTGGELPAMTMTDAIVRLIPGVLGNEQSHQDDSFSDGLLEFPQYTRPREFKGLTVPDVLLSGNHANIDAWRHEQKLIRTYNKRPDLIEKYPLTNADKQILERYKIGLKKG
Nature of the assay: Fluorescence polarization (FP) assay, tracer 4, S. aureus TrmD. The settings on record: KD S. aureus TrmD (FP displacement assay), apparent affinity, purified compound, 500 nM TrmD, 10 nM tracer 4. How it is done: To enable the screening of hundreds of nanomole-scale synthesized compounds, the implementation of a high-throughput-capable RNA methyltransferase (MTase) assay is considered fundamental. […] In this assay format, a fluorescent, SAM-pocket binding tracer can be displaced by the compound under investigation, and the resulting change in fluorescence polarization defines the read-out of the inhibitor compound’s affinity (Figure A).
(§1) Fluorescence polarization (FP) assays were performed as follows. The assays for H. influenzae TrmD have been described previously. All assays were conducted in technical triplicate using black 96-well half area plates. For the FP assays, a tracer (20 nM Cy5TPD for E. coli and H. influenzae TrmD, 10 nM tracer 4 for S. aureus TrmD) was mixed with the respective enzyme (2 μM E. coli TrmD, 2 μM H. influenzae TrmD, 500 nM S. aureus TrmD) in buffer (E. coli and H. influenzae TrmD: 50 mM HEPES, 500 mM NaCl, 5% Glycerol, pH 7.5, S. aureus TrmD: 40 mM Tris HCl, 100 mM NaCl, 10 mM MgCl2, 5% Glycerol, pH 7.5). The compounds were added in varying concentrations for K D-value determination. […] The Z-factor for tracer 4 was determined by measuring 48 replicates of the free tracer (positive controls, PC) and 48 replicates of a mixture of enzyme and tracer (negative controls, NC). The Z-factor is defined in terms of the means (μ) and standard deviations (σ) of the positive and negative controls and calculated as Z = 1–(3*(σnc + σpc)/(μnc–μpc)). […] Polarization values (mP) were determined from polarization-specific parallel and orthogonal fluorescence intensities. K D-values were calculated in GraphPad Prism 8.0.1 using the four-parameter Hill equation: y(% tracer bound) = bottom + ([ligand]-slope) × (top–bottom)/([ligand]-slope + K Dslope).

Assay [2] addresses T1, S. aureus TrmD. Nature of the assay: Isothermal titration calorimetry (ITC) on recombinant S. aureus TrmD. The method, then: (§2) Experiments were conducted in the S. aureus TrmD SEC buffer (40 mM Tris, pH 7.5, 100 mM NaCl, 10 mM MgCl2, 5% glycerol) for the S. aureus enzyme. The H. influenzae enzyme was buffer exchanged into its ITC buffer (50 mM HEPES, pH 7.5; 500 mM NaCl; 5% glycerol) using Amicon Ultra-15 centrifugal filter units (Merck) prior to use. Compound 1 (BLD Pharmatech) and compound 2 were dissolved in DMSO to a final concentration of 20.0 and 11.6 mM, respectively, and diluted in ITC buffer to give ligand solutions at 1 and 0.58 mM, respectively. Due to a low enthalpy signal, a low c-value titration was performed for compound 1. In this type of experiment, the ligand is typically added at high concentration and in large excess relative to its binding partner, driving more binding events per injection. This causes the equivalence point to be reached after only a few injections and leads to the loss of the characteristic sigmoidal binding curve. TrmD was diluted to a final concentration of 50 μM, and DMSO was added to a final concentration of 5% to match the buffers. ITC measurements were performed using a MicroCal PEAQ-ITC Automated workstation (Malvern Panalytical) equipped with a 200 μL Hastelloy cell and a 40 μL injection syringe. […] Data were analyzed and fitted using the MicroCal PEAQ-ITC Analysis Software 1.21 and plotted in GraphPad Prism 8.0.1.

The target in assay [3] is T2, H. influenzae TrmD (Haemophilus influenzae, UniProt P43912).
T2 construct: host or cells: E. coli BL21
Briefly: Isothermal titration calorimetry (ITC) on H. influenzae TrmD. How it is done:
as §2

Assay [4] concerns the target T1, S. aureus TrmD. Nature of the assay: Fluorescence polarization (FP) assay, tracer 4, S. aureus TrmD. The settings on record: enzyme concentration varied, read-out: KD of fluorescent tracer, S. aureus TrmD (FP).
The target of assay [5] is T2, H. influenzae TrmD. Nature of the assay: Fluorescence polarization (FP) assay, tracer 3 (Cy5TPD), H. influenzae TrmD. The note with it: tracer, enzyme concentration varied; read-out: KD of fluorescent tracer, H. influenzae TrmD (FP). The method, then: as §1

T2 sequence (P43912 whole entry): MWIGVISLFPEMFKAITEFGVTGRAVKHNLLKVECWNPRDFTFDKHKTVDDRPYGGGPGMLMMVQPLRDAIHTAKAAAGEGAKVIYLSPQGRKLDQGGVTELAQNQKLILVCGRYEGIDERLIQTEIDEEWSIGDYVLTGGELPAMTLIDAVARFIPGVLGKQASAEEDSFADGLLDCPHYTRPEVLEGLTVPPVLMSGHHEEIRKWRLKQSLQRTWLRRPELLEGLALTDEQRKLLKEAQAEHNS

`Oc1ncnc2scc(-c3ccccc3)c12` [Compound 1, O=C1NC=NC2=C1C(C3=CC=CC=C3)=CS2]: the Kd was found to be 28.6 µM on S. aureus TrmD [1], 19.8 µM on S. aureus TrmD [2] and 24.3 ± 6.16 µM at H. influenzae TrmD [3].
For the molecule `NCc1ccc(CNC(=O)c2csc3nc[nH]c(=O)c23)cc1` [Compound 2, N-(4-(Aminomethyl)benzyl)-4-oxo-3,4-dihydrothieno[2,3-d]pyrimidine-5-carboxamide], the results for the Kd at S. aureus TrmD [1], at S. aureus TrmD [2] and at H. influenzae TrmD [3] were 13.8 µM, 12.9 µM and 4.55 ± 0.31 µM, respectively.
As to `CN1/C(=C/C=C/C=C/C2=[N+](CCCCCC(=O)NCCCn3cc(-c4c[nH]c5nc[nH]c(=O)c45)nn3)c3ccccc3C2(C)C)C(C)(C)c2ccccc21` [Compound 4, 3,3-Dimethyl-1-(6-oxo-6-((3-(4-(4-oxo-4,7-dihydro-3H-pyrrolo[2,3-d]pyrimidin-5-yl)-1H-1,2,3-triazol-1-yl)propyl)amino)hexyl)-2-((1E,3E)-5-((E)-1,3,3-trimethylindolin-2-ylidene)penta-1,3-dien-1-yl)-3H-indol-1-ium trifluoroacetate], at S. aureus TrmD [4], the Kd was 0.659 µM and 0.66 µM.
Turning to `CN1/C(=C/C=C/C=C/C2=[N+](CCCCCC(=O)NCCCn3cc(CNC(=O)c4csc5nc[nH]c(=O)c45)nn3)c3ccccc3C2(C)C)C(C)(C)c2ccccc21` [Compound 3, reference compound], the Kd on S. aureus TrmD [4] is 23.3 µM; on H. influenzae TrmD [5] it was 2 µM and 2.02 µM.
